Assay results as given in ChEMBL document CHEMBL2406908, “Re-engineering of the duocarmycin structural architecture enables bioprecursor development targeting CYP1A1 and CYP2W1 for biological activity” (J Med Chem, 2013).
The source made the active and inactive calls. The calls are words filed in the database; no cut-off is given here.

Key:
RT-112 [1] = test: Induction of DNA damage in human RT112 cells assessed as phosphorylation of gammaH2A.X at 0.5 to 5 uM after 48 hrs by Western blotting analysis; type: functional, cell-based
RT-112 [2] = test: Antiproliferative activity against human RT112 cells expressing CYP1A1 assessed as growth inhibition after 96 hrs by MTT assay; type: functional, cell-based; conditions: RT-112, 96 h
HEK293 [3] = test: Induction of cell death in human HEK293 cells expressing CYP2W1 t 0.5 to 5 uM after 48 hrs by trypan blue assay; type: functional, cell-based
CYP1A1 [4] = test: Potentiation factor, ratio of IC50 for wild type CHO cells to IC50 of CHO cells expressing CYP1A1; type: ADME, cell-based, Cricetulus griseus; conditions: chinese hamster, wild type CHO cells and CHO cells expressing CYP1A1; read-out: Ratio IC50
HEK293 [5] = test: Induction of DNA damage in human HEK293 cells expressing CYP2W1 assessed as phosphorylation of gammaH2A.X at 0.5 to 5 uM after 48 hrs by Western blotting analysis; type: functional, cell-based
CYP1A1 [6] = test: Potentiation factor, ratio of IC50 for wild type HEK293 cells to IC50 of HEK293 cells expressing CYP1A1; type: ADME, cell-based; conditions: human, wild type HEK293 cells and HEK293 cells expressing CYP1A1; read-out: Ratio IC50
CHO [7] = test: Antiproliferative activity against CHO cells expressing CYP1A1 assessed as growth inhibition after 96 hrs by MTT assay; type: functional, cell-based; conditions: Cricetulus griseus
HEK293 [8] = test: Induction of cell death in mock-transfected human HEK293 cells t 0.5 to 5 uM after 48 hrs by trypan blue assay; type: cell-based; conditions: hek293, 48 h
HEK293 [9] = test: Antiproliferative activity against human HEK293 cells expressing CYP2W1 assessed as growth inhibition after 96 hrs by MTT assay; type: functional, cell-based; conditions: HEK293, 96 h
RT-112 [10] = test: Induction of cell death in human RT112 cells after 48 hrs at 0.5 to 5 uM by trypan blue assay; type: functional, cell-based
CHO [11] = test: Antiproliferative activity against CHO cells assessed as growth inhibition after 96 hrs by MTT assay; type: cell-based; conditions: Cricetulus griseus
HEK293 [12] = test: Induction of DNA damage in mock-transfected human HEK293 assessed as phosphorylation of gammaH2A.X at 0.5 to 5 uM after 48 hrs by Western blotting analysis; type: cell-based; conditions: hek293, 48 h
Liver = test: Drug metabolism in mouse liver homogenate at 100 uM up tp 120 mins by LC/MS analysis; type: ADME, tissue-based; conditions: tissue homogenate, 2 h
[13] = Antiproliferative activity against human EJ138 cells treated with extract obtained from 1 hr incubation of compound with control bactosome measured after 96 hrs by MTT assay; type: functional, cell-based
[14] = Antiproliferative activity against human EJ138 cells treated with extract obtained from 1 hr incubation of compound with CYP1A1 bactosome measured after 96 hrs by MTT assay; type: functional, cell-based
[15] = Antiproliferative activity against human EJ138 cells treated with extract obtained from 1 hr incubation of compound with CYP1A2 bactosome measured after 96 hrs by MTT assay; type: functional, cell-based
[16] = Drug metabolism in mouse liver microsomes at 100 uM after 2 hrs by HPLC/mass spectrometry analysis in presence of NADPH; type: ADME, Microsome
[17] = Antiproliferative activity against human EJ138 cells treated with extract obtained from 1 hr incubation of compound with CYP3A4 bactosome measured after 96 hrs by MTT assay; type: functional, cell-based
[18] = Antiproliferative activity against human EJ138 cells after 96 hrs by MTT assay; type: functional, cell-based; conditions: EJ138, 96 h
[19] = Potentiation factor, ratio of IC50 for human EJ138 cells treated with extract obtained from 1 hr incubation of compound with control bactosome to IC50 of human EJ138 treated with extract obtained from 1 hr incubation of compound with CYP2D6 bactosome; type: functional
[20] = Antiproliferative activity against human EJ138 cells treated with extract obtained from 1 hr incubation of compound with CYP2D6 bactosome measured after 96 hrs by MTT assay; type: functional, cell-based
[21] = Antiproliferative activity against human EJ138 cells treated with extract obtained from 1 hr incubation of compound with CYP1B1 bactosome measured after 96 hrs by MTT assay; type: functional, cell-based
[22] = Potentiation factor, ratio of IC50 for human EJ138 cells treated with extract obtained from 1 hr incubation of compound with control bactosome to IC50 of human EJ138 treated with extract obtained from 1 hr incubation of compound with CYP1B1 bactosome; type: functional
[23] = Potentiation factor, ratio of IC50 for human EJ138 cells treated with extract obtained from 1 hr incubation of compound with control bactosome to IC50 of human EJ138 treated with extract obtained from 1 hr incubation of compound with CYP1A1 bactosome; type: functional
[24] = Potentiation factor, ratio of IC50 for human EJ138 cells treated with extract obtained from 1 hr incubation of compound with control bactosome to IC50 of human EJ138 treated with extract obtained from 1 hr incubation of compound with CYP3A4 bactosome; type: functional
[25] = Potentiation factor, ratio of IC50 for human EJ138 cells treated with extract obtained from 1 hr incubation of compound with control bactosome to IC50 of human EJ138 treated with extract obtained from 1 hr incubation of compound with CYP1A2 bactosome; type: functional

Row | Structure (SMILES) | Activity (RT-112 [1]) | IC50 (RT-112 [2]) [nM] | Activity (HEK293 [3]) | selectivity ratio (CYP1A1 [4]) | Activity (HEK293 [5]) | selectivity ratio (CYP1A1 [6]) | IC50 (CHO [7]) [nM] | Activity (HEK293 [8]) | IC50 (HEK293 [9]) [nM] | Activity (RT-112 [10]) | IC50 (CHO [11]) [nM] | Activity (HEK293 [12]) | further results
1 | COc1ccc2[nH]c(C(=O)N3CC(CCl)c4c3ccc3[nH]ccc43)cc2c1 (stereo not given) | Active | 200 | Active | > 3200 | Active | 14.7 | < 1 | Non-toxic | 600 | Active | 3200 | Non-toxic | 
2 | O=C(c1cc2cc(F)ccc2[nH]1)N1CC(CCl)c2c1ccc1[nH]ccc21 (stereo not given) |  | 11100 |  | 251 |  | 21 | 90 |  | 500 |  | 22600 |  | 
3 | COc1cc2cc(C(=O)N3CC(CCl)c4c3ccc3[nH]ccc43)[nH]c2c(OC)c1OC (stereo not given) | Active | 7000 | Active | 2.4 | Active | 1.1 | 3100 | Non-toxic | 11100 | Active | 7500 | Non-toxic | 
4 | O=C(c1cc2cc(O)ccc2[nH]1)N1CC(CCl)c2c1ccc1[nH]ccc21 (stereo not given) |  | 32700 |  | 11 |  | 0.8 | 300 |  | 20500 |  | 3300 |  | 
5 | COc1ccc2[nH]c(C(=O)N3CC(CCl)c4c3ccc3ccccc43)cc2c1 (stereo not given) |  | > 50000 |  |  |  |  | 960 |  | > 50000 |  | > 50000 |  | Drug metabolism (Liver): Active; IC50 [13]: 1990 nM; IC50 [14]: 20 nM; IC50 [15]: 2230 nM; Drug metabolism [16]: Active; IC50 [17]: 1040 nM; IC50 [18]: 2880 nM; Ratio IC50 [19]: 0.79; IC50 [20]: 2530 nM; IC50 [21]: 1530 nM; Ratio IC50 [22]: 1.3; Ratio IC50 [23]: 100; Ratio IC50 [24]: 1.91; Ratio IC50 [25]: 0.9
6 | O=C(c1cc2cc(F)c(F)cc2[nH]1)N1CC(CCl)c2c1ccc1[nH]ccc21 (stereo not given) |  | 1800 |  | 80 |  | 2.6 | 230 |  | 3700 |  | 18400 |  | 
